The test concerns the target T1, hT1R2/hT1R3 sweet receptor expressed in HEK293 cell line (Homo sapiens, UniProt Q7RTX0+Q8TE23).
T1 construct: expressed in transfected cells; host or cells: HEK293 derivative stably expressing Gα15 and hT1R2/hT1R3, clone S-9
T1 sequence (Q8TE23 20-839): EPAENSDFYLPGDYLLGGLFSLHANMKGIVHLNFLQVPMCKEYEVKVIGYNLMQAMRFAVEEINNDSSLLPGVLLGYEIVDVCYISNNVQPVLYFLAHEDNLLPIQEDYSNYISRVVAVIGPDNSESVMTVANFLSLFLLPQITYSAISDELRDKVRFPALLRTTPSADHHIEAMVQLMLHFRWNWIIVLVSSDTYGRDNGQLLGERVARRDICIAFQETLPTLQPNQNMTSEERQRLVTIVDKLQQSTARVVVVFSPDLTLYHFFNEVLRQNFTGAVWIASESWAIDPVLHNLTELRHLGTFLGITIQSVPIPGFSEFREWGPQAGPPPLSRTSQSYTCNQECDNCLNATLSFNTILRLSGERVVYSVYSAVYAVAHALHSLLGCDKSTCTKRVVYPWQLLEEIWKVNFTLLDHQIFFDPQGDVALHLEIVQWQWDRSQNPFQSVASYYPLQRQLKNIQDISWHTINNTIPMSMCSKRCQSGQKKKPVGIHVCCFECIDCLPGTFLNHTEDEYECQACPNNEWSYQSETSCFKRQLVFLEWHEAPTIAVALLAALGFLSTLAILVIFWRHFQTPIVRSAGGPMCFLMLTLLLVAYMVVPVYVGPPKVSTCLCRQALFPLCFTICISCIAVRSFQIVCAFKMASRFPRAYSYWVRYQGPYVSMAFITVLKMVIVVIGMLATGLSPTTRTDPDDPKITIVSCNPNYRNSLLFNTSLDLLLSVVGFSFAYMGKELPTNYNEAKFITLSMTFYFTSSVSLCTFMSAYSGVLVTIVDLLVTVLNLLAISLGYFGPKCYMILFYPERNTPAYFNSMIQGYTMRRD
T1 sequence (Q7RTX0 21-852): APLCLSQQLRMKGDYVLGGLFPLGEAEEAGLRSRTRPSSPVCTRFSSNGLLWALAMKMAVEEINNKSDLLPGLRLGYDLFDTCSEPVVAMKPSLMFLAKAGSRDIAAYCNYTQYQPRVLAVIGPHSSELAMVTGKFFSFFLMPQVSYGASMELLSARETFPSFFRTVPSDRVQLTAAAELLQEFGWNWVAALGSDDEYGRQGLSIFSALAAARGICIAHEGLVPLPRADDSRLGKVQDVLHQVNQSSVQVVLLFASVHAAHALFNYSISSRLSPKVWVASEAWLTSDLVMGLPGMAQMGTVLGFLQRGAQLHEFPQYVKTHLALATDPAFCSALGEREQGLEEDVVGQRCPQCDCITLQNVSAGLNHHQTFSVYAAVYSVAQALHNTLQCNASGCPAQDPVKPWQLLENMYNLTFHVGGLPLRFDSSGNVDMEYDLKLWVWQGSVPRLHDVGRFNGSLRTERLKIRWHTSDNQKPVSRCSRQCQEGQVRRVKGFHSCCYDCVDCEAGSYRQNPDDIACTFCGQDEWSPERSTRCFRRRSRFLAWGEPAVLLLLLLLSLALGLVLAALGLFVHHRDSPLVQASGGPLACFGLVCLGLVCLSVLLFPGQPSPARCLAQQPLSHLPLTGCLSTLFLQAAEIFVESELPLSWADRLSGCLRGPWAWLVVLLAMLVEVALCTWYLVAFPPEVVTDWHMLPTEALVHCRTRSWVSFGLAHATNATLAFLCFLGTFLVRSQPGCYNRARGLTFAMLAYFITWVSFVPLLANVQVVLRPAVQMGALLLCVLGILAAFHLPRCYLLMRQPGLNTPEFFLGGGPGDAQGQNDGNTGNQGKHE
The test is described as follows: In vitro hT1R2/hT1R3-HEK293 taste receptor activation assay (FLIPR). In kind it is cell-based. On the procedure:
An HEK293 cell line derivative (Chandrashekar et al., Cell (2000) 100:703-711) that stably expresses Gα15 and hT1R2/hT1R3 (Li et al., Proc Natl Acad Sci USA (2002) 99:4692-4696), see also PCT Publication No. WO 03/001876 A2) was used to identify compounds with sweet taste enhancing properties.
Compounds covered in this document were initially selected based on their activity on the hT1R2/hT1R3-HEK293-Gα15 cell line (Li et al. vide supra). Activity was determined using an automated fluorometric imaging assay on a FLIPR instrument ([…], Molecular Devices, Sunnyvale, Calif.) (designated FLIPR assay). Cells from one clone (designated S-9 cells) were seeded into 384-well plates (at approximately 50,000 cells per well) in a medium containing DMEM Low Glucose (Invitrogen, Carlsbad, Calif.), 10% dialyzed fetal bovine serum (Invitrogen, Carlsbad, Calif.), 100 Units/ml Penicillin G, and 100 μg/ml Streptomycin (Invitrogen, Carlsbad, Calif.) (Li et al. vide supra) see also PCT Publication No. WO 03/001876 A2). S-9 cells were grown for 24 hours at 37° C. S-9 cells were then loaded with the calcium dye Fluo-3AM (Molecular Probes, Eugene, Oreg.), 4 μM in a phosphate buffered saline (D-PBS) (Invitrogen, Carlsbad, Calif.), for 1 hour at room temperature. After replacement with 25 μl D-PBS, stimulation was performed in the FLIPR instrument and at room temperature by the addition of 25 μl D-PBS supplemented with different stimuli at concentrations corresponding to twice the desired final level. Receptor activity was quantified by determining the maximal fluorescence increases (using a 480 nm excitation and 535 nm emission) after normalization to basal fluorescence intensity measured before stimulation.
For dose-responses analysis, stimuli were presented in duplicates at 10 different concentrations ranging from 60 nM to 30 μM. Activities were normalized to the response obtained with 400 mM D-fructose, a concentration that elicits maximum receptor response. EC50s were determined using a non-linear regression algorithm (using a Senomyx, Inc. software), where the Hill slope, bottom asymptotes and top asymptotes were allow to vary. Identical results were obtained when analyzing the dose-response data using commercially available software for non-linear regression analysis such as GraphPad PRISM (San Diego, Calif.).

[1] abbreviates: read-out: EC50 for activation of a hT1R2/hT1R3 sweet receptor expressed in HEK293 cell line.

Where two headings read alike, the source gives them in different places.

Turning to `CC(C)CNC(=O)C(C)(C)c1ccc(-c2cncc(OC(C)C)c2)cc1` [Compound A87], the EC50 (Table A, read-out: SWEET EC50) came out at 210 nM.

With `CC(C)CNC(=O)Cc1ccc(-c2ccccc2)c(F)c1` [Compound A8], where the note is “Table A, read-out: SWEET EC50”, the EC50 stood at 7500 nM. On the same count and under the same terms, as for `CC[C@H](CO)NC(=O)C(C)(C)c1ccc(-c2ccccc2)cc1` [Compound A60], the figure is 1100 nM; as for `CC(C)CNC(=O)C(C)(C)c1ccc(-c2ccccc2)cc1` [Compound A36], 1280 nM. As for `CC(C)[C@@H](C)NC(=O)C(C)(C)c1ccc(-c2cncnc2)cc1` [Compound 44, (R)-2-methyl-N-(3-methylbutan-2-yl)-2-(4-(pyrimidin-5-yl)phenyl)propanamide], under setting [1], the EC50 was 650 nM. Regarding `CC(C)CNC(=O)C(C)(C)c1ccc(-c2ccccc2CO)cc1` [Compound 36, 2-(2′-(hydroxymethyl)biphenyl-4-yl)-N-isobutyl-2-methylpropanamide], the EC50 under setting [1] stood at 1050 nM.

Consider `COCCNC(=O)C(C)c1ccc(-c2ccccc2)c(F)c1` (stereo not shown) [Compound 5, 2-(2-fluorobiphenyl-4-yl)-N-(2-methoxyethyl)propanamide], for which the EC50 under setting [1] was determined as 6500 nM. Consider `CC(C)(C(=O)CCc1ccco1)c1ccc(-c2cncc(C#N)c2)cc1` [Compound A72], for which the EC50 (Table A, read-out: SWEET EC50) was determined as 180 nM. Same read-out and setting: as for `CC(C)CNC(=O)C(C)(C)c1ccc(-c2cccc(C=O)c2)cc1` [Compound A37], the figure is 760 nM. For the compound `CC(C)CNC(=O)C(C)(C)c1ccc(-c2ccoc2)cc1` [Compound 1, 2-(4-(Furan-3-yl)phenyl)-N-isobutyl-2-methylpropanamide], under setting [1], the EC50 was 340 nM.

Consider `CC(C)(C(=O)NC1CCC1)c1ccc(-c2cncc(C#N)n2)cc1` [Compound A49], for which, where the note is “Table A, read-out: SWEET EC50”, the EC50 was 370 nM. Consider `CC(C)[C@H](C)NC(=O)C(C)(C)c1ccc(-c2cncc(C#N)n2)cc1` [Compound A46], for which, where the note is “Table A, read-out: SWEET EC50”, the EC50 was 310 nM. Same read-out and setting: in the case of `CCC(C)CNC(=O)C(C)(C)c1ccc(-c2cncc(C#N)c2)cc1` (stereo not shown) [Compound A83] it was 110 nM; in that of `CC(C)(C(=O)NCC(O)c1ccccc1)c1ccc(-c2cncc(C#N)c2)cc1` (stereo not shown) [Compound A61], 1170 nM; in that of `CC(C)CNC(=O)C(C)(C)c1ccc(-c2cccc(S(C)(=O)=O)c2)cc1` [Compound A38], 1490 nM. The same measure, in the same setting: in the case of `COc1ccc(-c2ccc(C(C)(C)C(=O)NCC(C)C)cc2)c(OC)c1` [Compound A19] it was 7100 nM; in that of `CCCOc1cccc(-c2ccc(C(C)(C)C(=O)NCC(C)C)cc2)c1` [Compound A17], 5600 nM; in that of `CC(C)CNC(=O)C(C)(C)c1ccc(-c2ccncn2)cc1` [Compound A33], 5400 nM.

In the case of `COCC(C)NC(=O)C(C)(C)c1ccc(-c2ccccc2)c(F)c1` (stereo not shown) [Compound A4], the EC50 (Table A, read-out: SWEET EC50) stood at 3190 nM.

On to `COc1cc(C(C)(C)C(=O)NCC(C)C)ccc1-c1ccccc1` [Compound A76], for which, for the setting “Table A, read-out: SWEET EC50”, the EC50 was determined as 960 nM. On to `CC(C)CNC(=O)C(C)c1ccc(-c2cccc(F)c2)cc1` (stereo not shown) [Compound A6], for which the EC50 (Table A, read-out: SWEET EC50) worked out at 1800 nM.

Regarding `CC[C@@H](C)NC(=O)C(C)(C)c1ccc(-c2cncc(C#N)n2)cc1` [Compound 47, (R)-N-sec-butyl-2-(4-(6-cyanopyrazin-2-yl)phenyl)-2-methylpropanamide], under setting [1], the EC50 was 140 nM. Same read-out and setting: as for `CC(C)[C@@H](C)NC(=O)C(C)(C)c1ccc(-c2cncc(C#N)c2)cc1` [Compound 22], the figure is 140 nM. With `CC(C)(C(=O)NCC1CC1)c1ccc(-c2cncc(C#N)n2)cc1` [Compound A45], for the setting “Table A, read-out: SWEET EC50”, the EC50 is 270 nM.

Consider `COCc1cncc(-c2ccc(C(C)(C)C(=O)NCC(C)C)cc2)n1` [Compound 29, N-isobutyl-2-(4-(6-(methoxymethyl)pyrazin-2-yl)phenyl)-2-methylpropanamide], for which the EC50 under setting [1] came out at 260 nM. For `COc1cccc(-c2ccc(C(C)(C)C(=O)NCC(C)C)cc2)c1OC` [Compound A18], the EC50 (Table A, read-out: SWEET EC50) stood at 6600 nM. The same measure, in the same setting: in the case of `CC(C)CNC(=O)C(C)(C)c1ccc(-n2ccnc2)cc1` [Compound A34] it was 10100 nM. As for `CC(C)CNC(=O)C(C)(C)c1ccc(-c2cccc(C(=O)N(C)C)c2)cc1` [Compound 17, 2-(3′-((dimethylamino)carbonyl)biphenyl-4-yl)-N-isobutyl-2-methylpropanamide], the EC50 under setting [1] was determined as 2700 nM. With `CC(C)NC(=O)C(C)(C)c1ccc(-c2cncc(C#N)c2)cc1` [Compound A22], the EC50 (Table A, read-out: SWEET EC50) came out at 940 nM. For the compound `Cc1cc(C(C)(C)C(=O)NCC(C)C)ccc1-c1ccccc1` [Compound 50, N-isobutyl-2-methyl-2-(2-methylbiphenyl-4-yl)propanamide], under setting [1], the EC50 is 1420 nM. As to `CC(C)CNC(=O)C(C)(C)c1ccc(-c2cccc3[nH]ccc23)cc1` [Compound A26], the EC50 (Table A, read-out: SWEET EC50) is 2020 nM.

Turning to `CC(C)CNC(=O)C(C)(C)c1ccc(-c2ccc3[nH]ccc3c2)cc1` [Compound A10], the EC50 (Table A, read-out: SWEET EC50) is 3360 nM. As to `CCCNC(=O)C(C)(C)c1ccc(-c2cccc(COC)c2)cc1` [Compound A78], under “Table A, read-out: SWEET EC50”, the EC50 turned out to be 670 nM. Regarding `CCOC(=O)c1cccc(-c2ccc(C(C)(C)C(=O)NCC(C)C)cc2)c1` [Compound 16, Ethyl 4′-(1-(isobutylamino)-2-methyl-1-oxopropan-2-yl)biphenyl-3-carboxylate], the EC50 under setting [1] was determined as 2600 nM. Regarding `COc1cccc(-c2ccc(C(C)(C)C(=O)NCC(C)C)cc2)c1` [Compound 19, N-isobutyl-2-(3′-methoxybiphenyl-4-yl)-2-methylpropanamide], the EC50 under setting [1] stood at 4300 nM. On to `CC(C)CNC(=O)C(C)(C)c1ccc(-c2cocc2/C=N/O)cc1` [Compound A71], for which the EC50 (Table A, read-out: SWEET EC50) is 750 nM. For `CC(C)(C(=O)NCC(O)c1ccco1)c1ccc(-c2cncc(C#N)n2)cc1` (stereo not shown) [Compound A65], the EC50 (Table A, read-out: SWEET EC50) worked out at 1310 nM. Turning to `CCCNC(=O)C(C)(C)c1ccc(-c2cncc(C#N)c2)cc1` [Compound A90], the EC50 (Table A, read-out: SWEET EC50) stood at 480 nM.

In the case of `COCc1cccc(-c2ccc(C(C)(C)C(=O)NCC(C)C)nc2)c1` [Compound A30], the EC50 (Table A, read-out: SWEET EC50) worked out at 3050 nM. The same measure, in the same setting: in the case of `CC(C)(C(=O)NCC1CC1)c1ccc(-c2cncc(C#N)c2)cc1` [Compound A84] it was 110 nM.

The values above are taken from patent US7842324B2 (Senomyx, Inc., priority 2005, dated 2010).
